From US10596172B2 (Celgene CAR LLC, priority 2008, dated 2020) come the findings set out here.

Where two headings read alike, the source gives them in different places.

The target in experiment [1] is T1, BTK (Homo sapiens (Human), UniProt Q06187). The experiment in a line: Mass spectrometry for BTK (covalent modification of intact protein). The class given is binding. As to conditions: 1 hr, 10x fold excess of compound. The protocol: Intact BTK was incubated for 1 hr at a 10× fold excess of I-7 to protein. Aliquots (2 μl) of the samples were diluted with 10 μl of 0.1% TFA prior to micro C4 ZipTipping directly onto the MALDI target using Sinapinic acid as the desorption matrix (10 mg/ml in 0.1% TFA:Acetonitrile 20:80).
T1 sequence (Q06187 whole entry): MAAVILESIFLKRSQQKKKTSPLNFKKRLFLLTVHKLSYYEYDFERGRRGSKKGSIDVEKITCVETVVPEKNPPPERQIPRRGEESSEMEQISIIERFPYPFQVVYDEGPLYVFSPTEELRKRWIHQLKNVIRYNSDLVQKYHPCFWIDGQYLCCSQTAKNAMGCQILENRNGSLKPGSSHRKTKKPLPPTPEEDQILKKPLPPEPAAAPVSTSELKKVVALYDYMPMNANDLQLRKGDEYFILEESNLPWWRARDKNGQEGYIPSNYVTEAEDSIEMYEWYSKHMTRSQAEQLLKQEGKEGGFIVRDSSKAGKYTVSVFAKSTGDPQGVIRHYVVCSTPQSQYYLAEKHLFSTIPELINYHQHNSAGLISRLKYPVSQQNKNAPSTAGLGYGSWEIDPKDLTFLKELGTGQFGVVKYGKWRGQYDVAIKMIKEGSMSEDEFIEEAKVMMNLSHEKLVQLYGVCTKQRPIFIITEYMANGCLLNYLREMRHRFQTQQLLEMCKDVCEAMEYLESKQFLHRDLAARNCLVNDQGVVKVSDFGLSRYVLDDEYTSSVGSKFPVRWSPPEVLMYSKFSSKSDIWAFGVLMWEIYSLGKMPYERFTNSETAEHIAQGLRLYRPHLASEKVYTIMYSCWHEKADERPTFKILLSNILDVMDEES

The test system of another experiment is Human naïve B cells. The experiment in a line: Human primary B cell proliferation assay. Type of experiment: cell-based. As to conditions: 5 μg/ml α-IgM 72 hours, 3H-thymidine incorporation. The protocol: Human naïve B cells were purified from 100 mL whole blood using a MACS purification kit designed to isolate CD19+, IgD+ cells by negative selection. Purified naïve B cells were resuspended in RPMI complete and stimulated with 5 μg/ml α-IgM for 72 hours. ^3H-Thymidine was included in the culture media for the final 16 h, cells were harvested and ^3H incorporation measured. Inhibition of B cell proliferation correlates with inhibition of BTK substrate phosphorylation after α-IgM stimulation.
(Uptake of a labelled nucleoside into DNA is a usual measure of proliferation.)

For a further experiment, the target named is JAK3 (Homo sapiens (Human), UniProt P52333). Nature of the experiment: Omnia assay for potency assessment against the active form of JAK3. Type of experiment: biochemical. As to conditions: read-out: JAK3 Inhibition.
JAK3, sequence (P52333 whole entry): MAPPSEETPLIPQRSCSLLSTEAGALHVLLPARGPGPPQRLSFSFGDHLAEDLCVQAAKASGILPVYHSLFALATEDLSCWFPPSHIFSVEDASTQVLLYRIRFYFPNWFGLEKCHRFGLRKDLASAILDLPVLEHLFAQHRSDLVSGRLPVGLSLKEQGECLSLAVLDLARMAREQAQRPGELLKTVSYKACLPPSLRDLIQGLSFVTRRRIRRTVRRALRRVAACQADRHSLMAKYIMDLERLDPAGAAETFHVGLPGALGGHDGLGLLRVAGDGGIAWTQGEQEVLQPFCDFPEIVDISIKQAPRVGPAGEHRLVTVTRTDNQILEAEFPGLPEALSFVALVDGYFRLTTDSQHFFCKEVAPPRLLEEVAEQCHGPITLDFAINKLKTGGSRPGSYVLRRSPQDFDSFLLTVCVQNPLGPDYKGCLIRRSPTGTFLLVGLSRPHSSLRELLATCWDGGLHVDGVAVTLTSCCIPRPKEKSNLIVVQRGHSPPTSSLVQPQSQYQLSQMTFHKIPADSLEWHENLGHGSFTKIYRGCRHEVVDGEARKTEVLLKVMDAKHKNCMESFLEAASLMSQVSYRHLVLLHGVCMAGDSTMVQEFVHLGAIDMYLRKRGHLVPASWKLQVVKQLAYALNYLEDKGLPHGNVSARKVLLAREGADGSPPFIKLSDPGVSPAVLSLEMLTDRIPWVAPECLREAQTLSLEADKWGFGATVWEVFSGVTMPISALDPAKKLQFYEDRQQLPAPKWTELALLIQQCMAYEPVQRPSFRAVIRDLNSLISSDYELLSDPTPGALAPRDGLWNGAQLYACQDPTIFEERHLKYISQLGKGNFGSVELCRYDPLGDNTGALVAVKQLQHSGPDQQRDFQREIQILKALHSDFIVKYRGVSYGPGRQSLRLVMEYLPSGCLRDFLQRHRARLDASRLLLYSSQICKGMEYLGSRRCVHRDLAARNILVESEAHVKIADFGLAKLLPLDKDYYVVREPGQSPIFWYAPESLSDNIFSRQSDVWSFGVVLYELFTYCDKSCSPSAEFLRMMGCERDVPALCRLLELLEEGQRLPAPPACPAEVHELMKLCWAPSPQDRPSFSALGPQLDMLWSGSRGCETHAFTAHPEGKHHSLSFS
In experiment [2] the target is T1, BTK. The experiment in a line: Human primary B cell covalent probe occupancy in vitro. The class given is cell-based. The settings on record: human primary B cells, 1 h at 37° C. On the procedure:
All samples were prepared with equal concentrations of Biorad lysis buffer (Hercules, Calif., USA), 0.5% bovine serum albumin in PBS with 0.05% Tween-20 to give a final concentration of 1 μM I-215. Samples were incubated in a mixing plate for 1 hr at room temperature while shaking to allow probe compound I-215 to bind to free BTK. After incubation with I-215, samples were added to a washed, streptavidin-coated ELISA plate (Pierce, Rockford, Ill., USA) and incubated for 1 hr at room temperature while shaking. The plate was then washed with PBS containing 0.05% Tween-20 using an automatic plate washer. Anti-BTK antibody was prepared at 1:1000 dilution in 0.5% BSA in PBS (0.05% Tween-20) and added to the ELISA plate. The plate was incubated for 1 hr at room temperature while shaking. The plate was washed as described above and the secondary HRP antibody was prepared at 1:5000 dilution in 0.5% BSA in PBS (0.05% Tween-20). […] TMB was added to the plate, and OD650 was monitored until reaching 1 OD unit. […] The plate was analyzed using Gen 5 software, and a 4 Parameter Logistic curve was employed to quantitate samples. […]
Human primary B cells were isolated as described in Example 256, then resuspended in RPMI media (10% serum). The compound to be analyzed was added at a 1:1000 dilution to media. […] The supernatant was analyzed as described in Example 283 using I-215.

The target of experiment [3] is BTK (Rattus norvegicus, UniProt Q5S255). The experiment in a line: BTK occupancy from in vivo samples by ELISA. As to conditions: po, rats dosed orally 30 mg/kg. On the procedure: (§1) All samples were prepared with equal concentrations of Biorad lysis buffer (Hercules, Calif., USA), 0.5% bovine serum albumin in PBS with 0.05% Tween-20 to give a final concentration of 1 μM I-215. Samples were incubated in a mixing plate for 1 hr at room temperature while shaking to allow probe compound I-215 to bind to free BTK. After incubation with I-215, samples were added to a washed, streptavidin-coated ELISA plate (Pierce, Rockford, Ill., USA) and incubated for 1 hr at room temperature while shaking. The plate was then washed with PBS containing 0.05% Tween-20 using an automatic plate washer. Anti-BTK antibody was prepared at 1:1000 dilution in 0.5% BSA in PBS (0.05% Tween-20) and added to the ELISA plate. The plate was incubated for 1 hr at room temperature while shaking. The plate was washed as described above and the secondary HRP antibody was prepared at 1:5000 dilution in 0.5% BSA in PBS (0.05% Tween-20). The plate was incubated and washed as described above. TMB was added to the plate, and OD650 was monitored until reaching 1 OD unit. The reaction was then stopped with addition of H2SO4. The plate was analyzed using Gen 5 software, and a 4 Parameter Logistic curve was employed to quantitate samples. Recombinant BTK (Invitrogen, Carlsbad, Calif., USA) was used for the standard curve.
BTK (Rattus norvegicus, UniProt Q5S255), sequence (Q5S255 1-660): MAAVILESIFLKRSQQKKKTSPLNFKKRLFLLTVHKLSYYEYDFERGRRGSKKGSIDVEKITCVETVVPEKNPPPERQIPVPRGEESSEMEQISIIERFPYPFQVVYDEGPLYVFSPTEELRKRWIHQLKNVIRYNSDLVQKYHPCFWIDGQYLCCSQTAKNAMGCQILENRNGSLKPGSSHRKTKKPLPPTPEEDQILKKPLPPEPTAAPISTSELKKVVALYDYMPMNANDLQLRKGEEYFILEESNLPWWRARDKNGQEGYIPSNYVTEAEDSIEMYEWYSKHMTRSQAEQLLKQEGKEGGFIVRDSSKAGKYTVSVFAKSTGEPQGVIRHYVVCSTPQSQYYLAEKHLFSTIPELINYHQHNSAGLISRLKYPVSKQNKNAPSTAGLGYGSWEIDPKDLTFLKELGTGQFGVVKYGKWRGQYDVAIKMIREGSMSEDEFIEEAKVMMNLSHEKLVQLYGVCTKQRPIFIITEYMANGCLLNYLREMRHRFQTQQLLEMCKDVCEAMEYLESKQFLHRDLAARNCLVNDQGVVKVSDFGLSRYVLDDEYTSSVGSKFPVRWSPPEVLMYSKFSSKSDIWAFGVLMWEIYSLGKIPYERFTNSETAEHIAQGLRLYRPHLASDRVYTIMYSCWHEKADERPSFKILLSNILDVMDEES
Rats were dosed orally with 30 mg/kg of compound and spleens were harvested either 2 or 24 hours after compound treatment. Rat spleens were disrupted between two microscope slides coated with frosted glass to recover single cell suspensions. Red blood cells were lysed by incubating with RBC lysis buffer (Boston BioProducts) for 2 minutes at room temperature, the cells were then resuspended in RPMI complete media and pelleted by centrifugation. Rat B cells were isolated by positive selection with B220+ antibody-magnetic bead conjugates, purified by MACS column and lysed in Bio-Rad lysis buffer at a concentration of 10 million cells/100 μl. Lysates were analyzed employing the biotinylated probe compound I-215 in an ELISA protocol as described in detail in Example 278.
(ELISA stands for enzyme-linked immunosorbent assay.)

The subject of experiment [4] is B cell lymphoma cell lines. Nature of the experiment: B cell lymphoma proliferation assay. The class given is cell-based.
Experiment [5] concerns the target T1, BTK. The experiment in a line: BTK occupancy from in vitro samples by ELISA (Ramos cells). Type of experiment: cell-based. On the procedure:
In order to determine the amount of free BTK in cell or tissue lysates, an ELISA protocol was employed that utilizes a biotinylated probe compound that binds only to free, unoccupied BTK. The conjugated biotin is captured on a streptavidin-coated ELISA plate and detected with a mouse anti-BTK antibody (Becton Dickinson, Franklin Lakes, N.J., USA) and a secondary goat anti-mouse HRP antibody (Zymed, South San Francisco, Calif., USA).
as §1
A concentration designated as “A” is greater than 1 nM; a concentration designated as “B” is greater than 10 nM; and a concentration designated as “C” is greater than 50 nM.

Experiment [6] addresses BTK (Canis lupus familiaris, UniProt A0A8I3P3Z9). The experiment in a line: Dog primary B cell covalent probe occupancy in vitro. The settings on record: canine PBMCs, one hour at 37° C. The class given is cell-based. The protocol:
All samples were prepared with equal concentrations of Biorad lysis buffer (Hercules, Calif., USA), 0.5% bovine serum albumin in PBS with 0.05% Tween-20 to give a final concentration of 1 μM I-215. Samples were incubated in a mixing plate for 1 hr at room temperature while shaking to allow probe compound I-215 to bind to free BTK. After incubation with I-215, samples were added to a washed, streptavidin-coated ELISA plate (Pierce, Rockford, Ill., USA) and incubated for 1 hr at room temperature while shaking. The plate was then washed with PBS containing 0.05% Tween-20 using an automatic plate washer. Anti-BTK antibody was prepared at 1:1000 dilution in 0.5% BSA in PBS (0.05% Tween-20) and added to the ELISA plate. The plate was incubated for 1 hr at room temperature while shaking. The plate was washed as described above and the secondary HRP antibody was prepared at 1:5000 dilution in 0.5% BSA in PBS (0.05% Tween-20). The plate was incubated and washed as described above. TMB was added to the plate, and OD650 was monitored until reaching 1 OD unit. […] The plate was analyzed using Gen 5 software, and a 4 Parameter Logistic curve was employed to quantitate samples. […]
Canine whole blood (30 mL) was diluted to 50 mL total with 1×PBS and layered on top of Histopaque-1077 (Sigma Aldrich). […] The supernatant was analyzed as described in Example 283 using I-215. […]

The mark [7] stands for this setting: spleen B cells harvested 2 hours after treatment, read-out: % BTK Occupancy 2 h.
The mark [8] stands for this setting: spleen B cells harvested 24 hours after treatment, read-out: % BTK Occupancy 24 h.
Where [9] appears, read: Homo sapiens, DOHH-2, DOHH2 B cell lymphoma cell line, read-out: EC50 (μM) DOHH2.
[10] abbreviates: Homo sapiens, WSUDLCL2, WSU-DLCL2 B cell lymphoma cell line, read-out: EC50 (μM) WSU-DLCL2.

BTK (Canis lupus familiaris, UniProt A0A8I3P3Z9), sequence (A0A8I3P3Z9 1-664): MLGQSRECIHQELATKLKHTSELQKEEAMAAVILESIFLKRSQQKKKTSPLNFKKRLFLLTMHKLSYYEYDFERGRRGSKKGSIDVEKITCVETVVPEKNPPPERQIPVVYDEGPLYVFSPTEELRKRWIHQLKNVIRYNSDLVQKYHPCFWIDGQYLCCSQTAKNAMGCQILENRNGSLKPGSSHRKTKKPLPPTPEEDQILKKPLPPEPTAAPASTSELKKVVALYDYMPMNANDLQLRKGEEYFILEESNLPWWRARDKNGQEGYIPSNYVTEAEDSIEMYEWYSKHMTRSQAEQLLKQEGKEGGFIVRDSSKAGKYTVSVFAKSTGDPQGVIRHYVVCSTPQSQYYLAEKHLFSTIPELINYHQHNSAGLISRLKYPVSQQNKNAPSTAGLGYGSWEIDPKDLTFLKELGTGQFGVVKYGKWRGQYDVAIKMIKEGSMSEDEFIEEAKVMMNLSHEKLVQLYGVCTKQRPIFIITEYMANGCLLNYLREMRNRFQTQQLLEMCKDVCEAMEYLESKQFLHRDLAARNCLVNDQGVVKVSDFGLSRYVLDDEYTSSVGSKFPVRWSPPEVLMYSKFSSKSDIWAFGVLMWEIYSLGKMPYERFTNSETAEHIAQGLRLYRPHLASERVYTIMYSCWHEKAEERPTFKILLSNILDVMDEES

For the compound `C=CC(=O)Nc1cccc(Nc2nc(Nc3ccc(OCCOC)cc3)ncc2F)c1` [Compound I-182, N-(3-(5-fluoro-2-(4-(2-methoxyethoxy)phenylamino)pyrimidin-4-ylamino)phenyl)acrylamide], the “covalent modification of BTK by mass spectrometry” value on BTK [1] was “completely modify”. Also, the EC50 is 0.001 to 0.01 µM with Human naïve B cells; 1 to 10 µM in experiment [4] (DHL4 B cell lymphoma cell line, read-out: EC50 (μM) DHL4); 1 to 10 µM in experiment [4] (setting [9]); 1 to 10 µM in experiment [4] (setting [10]). In addition, the IC50 on JAK3 was under 0.01 µM. Further, on BTK [2], the “concentration at which at least 50% of BTK is occupied” value is listed as “greater than 10 nM”. For the same compound, the receptor occupancy at 30 mg/kg stood at 99% at BTK [3] (setting [7]) and 79% at BTK [3] (setting [8]). Further, on BTK [5], the “>50% occupancy (concentration at which >50% of BTK is occupied)” value was “A (greater than 1 nM)”. For the same compound, the “>90% occupancy (concentration at which >90% of BTK is occupied)” value on BTK [5] is on record as “C (greater than 50 nM)”.
Take `C=CC(=O)Nc1cccc(Nc2nc(Nc3ccc(OCCOC)c(F)c3)ncc2F)c1` [Compound I-96, N-(3-(2-(3-fluoro-4-(2-methoxyethoxy)phenylamino)-5-fluoropyrimidin-4-ylamino)phenyl)acrylamide]: the “covalent modification of BTK by mass spectrometry” value at BTK [1] is reported as “completely modify”. Moreover, the EC50 was in the range of 0.001 to 0.01 µM in the experiment with Human naïve B cells, 0.1 to 1 µM in experiment [4] (setting [9]) and 1 to 10 µM in experiment [4] (setting [10]). The IC50 on JAK3 was under 0.01 µM. Moreover, the “concentration at which at least 50% of BTK is occupied” value at BTK [2] and on BTK [6] was “greater than 10 nM” each time. Also, the receptor occupancy at 30 mg/kg was 87% on BTK [3] (setting [7]) and 60% at BTK [3] (setting [8]). Moreover, the “>50% occupancy (concentration at which >50% of BTK is occupied)” value at BTK [5] is “A (greater than 1 nM)”. Moreover, on BTK [5], the “>90% occupancy (concentration at which >90% of BTK is occupied)” value was “B (greater than 10 nM)”.

For orientation: EC50 means the concentration at which the effect is half-maximal.
